Assays:
Experiment in all cases: combination Emax (second highest fraction inhibited in the dose matrix, 72 h); higher = more inhibition; extreme values may be limits of the assay
[1] = test system: CL-11 (Colorectal Carcinoma)
Method in brief: (§1)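 After 24 hours at 37°C and 5% CO2 in 1536-well plates, cells in DMEM/F12 or RPMI plus 10% FBS received two-drug dose matrices for 72 hours. Viability came from CellTiter-Glo 2.0 luminescence and was scaled as inhibition, anchored at 0 by vehicle wells and at 1 by blank wells. Combination Emax is taken as the second-highest inhibition in the matrix, and Bliss excess as the observed combination effect less EA + EB − EA·EB, with EA and EB the single-agent effects.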

[2] = test system: MDA-MB-415 (Breast Carcinoma)
Method in brief: as §1

[3] = test system: MOLT-13 (T-Lymphoblastic Leukemia)
Method in brief: as §1

[4] = test system: MONO-MAC-6 (Acute Myeloid Leukemia)
Method in brief: as §1

[5] = test system: NB1 (Neuroblastoma)
Method in brief: as §1

[6] = test system: NCI-H1876 (Small Cell Lung Carcinoma)
Method in brief: as §1

[7] = test system: NCI-H1963 (Small Cell Lung Carcinoma)
Method in brief: as §1

[8] = test system: NCI-H596 (Other Solid Carcinomas)
Method in brief: as §1

[9] = test system: NMC-G1 (Low Grade Glioma)
Method in brief: as §1

[10] = test system: P32-ISH (Burkitt's Lymphoma)
Method in brief: as §1

[11] = test system: PA-TU-8988T (Pancreatic Carcinoma)
Method in brief: as §1

[12] = test system: RCC-JW (Kidney Carcinoma)
Method in brief: as §1

[13] = test system: Raji (Burkitt's Lymphoma)
Method in brief: as §1

[14] = test system: SKG-IIIa (Cervical Carcinoma)
Method in brief: as §1

[15] = test system: SNU-407 (Colorectal Carcinoma)
Method in brief: as §1

[16] = test system: SNU-423 (Hepatocellular Carcinoma)
Method in brief: as §1

[17] = test system: SUP-M2 (T-Cell Non-Hodgkin's Lymphoma)
Method in brief: as §1

[18] = test system: T84 (Colorectal Carcinoma)
Method in brief: as §1

[19] = test system: TUR (Acute Myeloid Leukemia)
Method in brief: as §1

[20] = test system: WM35 (Melanoma)
Method in brief: as §1

Row | Structure (SMILES) | combination Emax [1] | combination Emax [2] | combination Emax [3] | combination Emax [4] | combination Emax [5] | combination Emax [6] | combination Emax [7] | combination Emax [8] | combination Emax [9] | combination Emax [10] | combination Emax [11] | combination Emax [12] | combination Emax [13] | combination Emax [14] | combination Emax [15] | combination Emax [16] | combination Emax [17] | combination Emax [18] | combination Emax [19] | combination Emax [20]
1 | CCN(CCO)CCCOc1ccc2c(Nc3cc(CC(=O)Nc4cccc(F)c4)[nH]n3)ncnc2c1 [AZD2811] + C[C@@H]1COCCN1C2=NC(=NC(=C2)C3(CC3)[S@](=N)(=O)C)C4=C5C=CNC5=NC=C4 [AZD6738] (first compound max 1 µM, 7x7, partner max 10 µM) | 0.777 | 0.498 | 0.993 | 0.908 | 0.79 | 0.963 | 0.887 | 0.377 | 0.372 | 0.992 | 0.35 | 0.545 | 0.691 | 0.326 | 0.658 | 0.473 | 0.999 | 0.675 | 0.861 | 0.575
2 | Cc1cc2ncnn2cc1Nc1ncc2c(n1)n(C1CCOCC1)c(=O)n2C [AZD7648] + CCN(CCO)CCCOc1ccc2c(Nc3cc(CC(=O)Nc4cccc(F)c4)[nH]n3)ncnc2c1 [AZD2811] (first compound max 10 µM, 7x7, partner max 1 µM) | 0.276 | 0.472 | 0.973 | 0.787 | 0.629 | 0.794 | 0.866 | 0.243 | 0.279 | 0.935 | 0.33 | 0.447 | 0.19 | 0.297 | 0.376 | 0.341 | 0.932 | 0.287 | 0.284 | 0.155
3 | Cc1cc2ncnn2cc1Nc1ncc2c(n1)n(C1CCOCC1)c(=O)n2C [AZD7648] + O=C(c1cc(Cc2n[nH]c(=O)c3ccccc23)ccc1F)N1CCN(C(=O)C2CC2)CC1 [Olaparib] (first compound max 10 µM, 7x7, partner max 10 µM) | 0.144 | 0.263 | 0.35 | 0.317 | 0.191 | 0.723 | 0.299 | 0.361 | 0.18 | 0.207 | 0.339 | 0.198 | 0.396 | 0.0374 | 0.239 | 0.275 | 0.831 | 0 | 0.114 | 0.119
4 | CN(C)CCCOc1ccc(-c2ccc3ncc4c(c3c2)n(C2CCOCC2)c(=O)n4C)cn1 [AZD0156] + CCN(CCO)CCCOc1ccc2c(Nc3cc(CC(=O)Nc4cccc(F)c4)[nH]n3)ncnc2c1 [AZD2811] (first compound max 1 µM, 7x7, partner max 1 µM) | 0.0968 | 0.206 | 0.99 | 0.743 | 0.641 | 0.853 | 0.857 | 0.207 | 0.126 | 0.962 | 0.219 | 0.093 | 0.165 | 0.0993 | 0.287 | 0.194 | 0.94 | 0.023 | 0.218 | 0.119
5 | CN(CCO)CC[C@H](CSc1ccccc1)Nc1ccc(S(=O)(=O)NC(=O)c2ccc(N3CCC([C@@H](O)c4ccccc4-c4ccc(Cl)cc4)CC3)cc2)cc1S(=O)(=O)C(F)(F)F [AZD4320] + Cc1cc2ncnn2cc1Nc1ncc2c(n1)n(C1CCOCC1)c(=O)n2C [AZD7648] (first compound max 1 µM, 7x7, partner max 10 µM) | 0.126 | 0.749 | 0.951 | 0.393 | 0.191 | 0.925 | 1 | 0.338 | 0.759 | 0.193 | 0.23 | 0.566 | 0.202 | 0.12 | 0.721 | 0.39 | 0.47 | 0.0764 | 0.242 | 0.16
6 | COc1cccc(OCCCN)c1-c1cc(Nc2cnc(C#N)cn2)n[nH]1 [Prexasertib] + Cc1cc2ncnn2cc1Nc1ncc2c(n1)n(C1CCOCC1)c(=O)n2C [AZD7648] (first compound max 1 µM, 7x7, partner max 10 µM) | 0.788 | 0.413 | 1 | 0.976 | 0.78 | 0.988 | 0.975 | 0.438 | 0.327 | 1 | 0.532 | 0.501 | 0.97 | 0.389 | 0.597 | 0.735 | 1 | 0.785 | 1 | 0.772
7 | CC1(C)CCC(CN2CCN(c3ccc(C(=O)NS(=O)(=O)c4ccc(NCC5CCOCC5)c([N+](=O)[O-])c4)c(Oc4cnc5[nH]ccc5c4)c3)CC2)=C(c2ccc(Cl)cc2)C1 [Venetoclax] + CN(C)CCCOc1ccc(-c2ccc3ncc4c(c3c2)n(C2CCOCC2)c(=O)n4C)cn1 [AZD0156] (first compound max 1 µM, 7x7, partner max 1 µM) | 0.11 | 0.262 | 0.718 | 0.619 | 0.145 | 0.282 | 0.565 | 0.232 | 0.192 | 0.0131 | 0.179 | 0.184 | 0.244 | 0.219 | 0.234 | 0.271 | 0.264 | 0.19 | 0.0455 | 0.135
8 | CN(CCO)CC[C@H](CSc1ccccc1)Nc1ccc(S(=O)(=O)NC(=O)c2ccc(N3CCC([C@@H](O)c4ccccc4-c4ccc(Cl)cc4)CC3)cc2)cc1S(=O)(=O)C(F)(F)F [AZD4320] + C=CCn1c(=O)c2cnc(Nc3ccc(N4CCN(C)CC4)cc3)nc2n1-c1cccc(C(C)(C)O)n1 [AZD1775] (first compound max 1 µM, partner max 1 µM) | 0.507 | 0.665 | 1 | 0.88 | 0.931 | 1 | 1 | 0.318 | 0.785 | 0.994 | 0.922 | 0.712 | 0.591 | 0.426 | 0.415 | 0.804 | 1 | 0.528 | 0.904 | 0.331
9 | Cc1c2c(nn1C)CSCc1cc(n(C)n1)CSc1cc(c3ccccc3c1)OCCCc1c(C(=O)O)n(C)c3c-2c(Cl)ccc13 [AZD5991] + C[C@@H](Nc1cc(F)cc(F)c1)c1cc(C(=O)N(C)C)cc2c(=O)cc(N3CCOCC3)oc12 [AZD8186] (first compound max 1 µM, 7x7, partner max 3 µM) | 0.155 | 0.931 | 1 | 1 | 0.26 | 0.711 | 0.437 | 0.299 | 0.224 | 1 | 0.45 | 0.461 | 0.749 | 0.24 | 0.672 | 0.431 | 0.996 | 0.139 | 0.391 | 0.307
10 | COc1cccc(OCCCN)c1-c1cc(Nc2cnc(C#N)cn2)n[nH]1 [Prexasertib] + O=C(c1cc(Cc2n[nH]c(=O)c3ccccc23)ccc1F)N1CCN(C(=O)C2CC2)CC1 [Olaparib] (first compound max 1 µM, 7x7, partner max 10 µM) | 0.77 | 0.397 | 1 | 0.976 | 0.561 | 0.981 | 0.908 | 0.642 | 0.371 | 1 | 0.288 | 0.319 | 0.982 | 0.373 | 0.583 | 0.77 | 1 | 0.826 | 1 | 0.79
11 | CN(C)CCCOc1ccc(-c2ccc3ncc4c(c3c2)n(C2CCOCC2)c(=O)n4C)cn1 [AZD0156] + C=CCn1c(=O)c2cnc(Nc3ccc(N4CCN(C)CC4)cc3)nc2n1-c1cccc(C(C)(C)O)n1 [AZD1775] (first compound max 1 µM, partner max 1 µM) | 0.545 | 0.177 | 0.977 | 0.886 | 0.936 | 0.982 | 0.87 | 0.307 | 0.264 | 0.995 | 0.718 | 0.221 | 0.695 | 0.203 | 0.358 | 0.506 | 1 | 0.556 | 0.772 | 0.348
12 | COc1cccc(OCCCN)c1-c1cc(Nc2cnc(C#N)cn2)n[nH]1 [Prexasertib] + CCc1c2c(nc3ccc(O)cc13)-c1cc3c(c(=O)n1C2)COC(=O)[C@]3(O)CC [SN-38] (first compound max 1 µM, 7x7, partner max 0.3 µM) | 0.849 | 0.538 | 1 | 1 | 0.912 | 1 | 1 | 0.735 | 0.315 | 1 | 0.921 | 0.637 | 0.983 | 0.595 | 0.639 | 0.779 | 1 | 0.866 | 1 | 0.726
13 | C=CCn1c(=O)c2cnc(Nc3ccc(N4CCN(C)CC4)cc3)nc2n1-c1cccc(C(C)(C)O)n1 [AZD1775] + C[C@@H]1COCCN1C2=NC(=NC(=C2)C3(CC3)[S@](=N)(=O)C)C4=C5C=CNC5=NC=C4 [AZD6738] (first compound max 1 µM, partner max 10 µM) | 0.774 | 0.595 | 1 | 1 | 0.944 | 0.987 | 1 | 0.663 | 0.451 | 1 | 0.833 | 0.725 | 0.937 | 0.586 | 0.758 | 0.747 | 1 | 0.817 | 0.938 | 0.659

— the supplement of paper PMC11061612
